Literature values, collected in patent publication US8628797B2, “Oral extended-release composition” (Andrx Pharmaceuticals, LLC, priority 2003, dated 2014).

Details: 1 part drug in the stated parts of water

Compound | solubility
CC1Cc2ccccc2N1NC(=O)c1ccc(Cl)c(S(N)(=O)=O)c1 (stereo not shown) [indapamide] | more than 10,000 parts of water
CC[C@H]1OC(=O)[C@H](C)[C@@H](O[C@H]2C[C@@](C)(OC)[C@@H](O)[C@H](C)O2)[C@H](C)[C@@H](O[C@@H]2O[C@H](C)C[C@H](N(C)C)[C@H]2O)[C@](C)(OC)C[C@@H](C)C(=O)[C@H](C)[C@@H](O)[C@]1(C)O [Clarithromycin, 6-O-methylerythromycin A] | ~1,000 parts of water

Details: in vivo

Compound | absorption in the presence of food
COc1c2occc2cc2ccc(=O)oc12 [8-methoxsalen] | increased

Same assay, conditions: in words; literature review

Compound | absorption in the presence of food
NS(=O)(=O)c1cc2c(cc1C(F)(F)F)NC(Cc1ccccc1)NS2(=O)=O (stereo not shown) [bendroflumethiazide] | unaffected
N[C@@H](C(=O)N[C@@H]1C(=O)N2C(C(=O)O)=C(Cl)CS[C@H]12)c1ccccc1 [cefaclor] | delayed
CC(=O)Oc1ccccc1C(=O)O [aspirin] | delayed
CC(C(=O)O)c1ccc(N2Cc3ccccc3C2=O)cc1 (stereo not shown) [indoprofen] | delayed
O=C1CN(/N=C/c2ccc([N+](=O)[O-])o2)C(=O)N1 [nitrofurantoin] | increased
CN/C(=N/CCSCc1nc[nH]c1C)NC#N [cimetidine] | delayed
CCC(=O)O[C@H]1[C@H](O[C@@H]2[C@@H](C)[C@H](O[C@H]3C[C@@](C)(OC)[C@@H](O)[C@H](C)O3)[C@@H](C)C(=O)O[C@H](CC)[C@@](C)(O)[C@H](O)[C@@H](C)C(=O)[C@H](C)C[C@@]2(C)O)O[C@H](C)C[C@@H]1N(C)C [erythromycin estolate] | unaffected
C=CCOc1ccc(CC(=O)O)cc1Cl [alclofenac] | delayed
O=c1oc2ccccc2c(O)c1Cc1c(O)c2ccccc2oc1=O [dicoumarol] | increased
spiramycin | unaffected
